Test results reported in ChEMBL document CHEMBL4308841, “Synthesis, in vitro antiproliferative activity, and kinase inhibitory effects of pyrazole-containing diarylureas and diarylamides” (Eur J Med Chem, 2018).

How the values were obtained:
[1] = system: Hs-578T; assay: Growth inhibition of human Hs578T cells assessed as cell growth at 0.1 uM incubated for 48 hrs by sulforhodamine B assay relative to control; assay type: functional; conditions: read-out: Activity
[2] = system: OVCAR-5; assay: Growth inhibition of human OVCAR5 cells assessed as cell growth at 0.01 uM incubated for 48 hrs by sulforhodamine B assay relative to control; assay type: functional; conditions: OVCAR-5, 48 h, read-out: Activity
[3] = system: MDA-MB-435; assay: Growth inhibition of human MDA-MB-435 cells assessed as cell growth at 100 uM incubated for 48 hrs by sulforhodamine B assay relative to control; assay type: functional; conditions: MDA-MB-435, 48 h, read-out: Activity
[4] = system: Malme-3M; assay: Growth inhibition of human MALME-3M cells assessed as cell growth at 100 uM incubated for 48 hrs by sulforhodamine B assay relative to control; assay type: functional; conditions: read-out: Activity
[5] = system: SF-539; assay: Growth inhibition of human SF539 cells incubated for 48 hrs by sulforhodamine B assay; assay type: functional, cell-based; conditions: SF-539, 48 h
[6] = system: SK-MEL-2; assay: Growth inhibition of human SK-MEL-2 cells assessed as cell growth at 0.1 uM incubated for 48 hrs by sulforhodamine B assay relative to control; assay type: functional; conditions: SK-MEL-2, 48 h, read-out: Activity
[7] = system: UO-31; assay: Growth inhibition of human UO31 cells incubated for 48 hrs by sulforhodamine B assay; assay type: functional, cell-based; conditions: UO-31, 48 h
[8] = system: MCF7; assay: Growth inhibition of human MCF7 cells incubated for 48 hrs by sulforhodamine B assay; assay type: functional, cell-based; conditions: MCF7, 48 h
[9] = system: HCT-116; assay: Growth inhibition of human HCT116 cells assessed as cell growth at 0.1 uM incubated for 48 hrs by sulforhodamine B assay relative to control; assay type: functional; conditions: HCT-116, 48 h, read-out: Activity
[10] = system: UACC-257; assay: Growth inhibition of human UACC257 cells assessed as cell growth at 100 uM incubated for 48 hrs by sulforhodamine B assay relative to control; assay type: functional; conditions: UACC-257, 48 h, read-out: Activity
[11] = system: SK-MEL-2; assay: Growth inhibition of human SK-MEL-2 cells assessed as cell growth at 100 uM incubated for 48 hrs by sulforhodamine B assay relative to control; assay type: functional; conditions: SK-MEL-2, 48 h, read-out: Activity
[12] = system: HCT-15; assay: Growth inhibition of human HCT15 cells incubated for 48 hrs by sulforhodamine B assay; assay type: functional, cell-based; conditions: HCT-15, 48 h
[13] = system: OVCAR-3; assay: Growth inhibition of human OVCAR3 cells assessed as cell growth at 0.01 uM incubated for 48 hrs by sulforhodamine B assay relative to control; assay type: functional; conditions: OVCAR-3, 48 h, read-out: Activity
[14] = system: NCI-H23; assay: Growth inhibition of human NCI-H23 cells incubated for 48 hrs by sulforhodamine B assay; assay type: functional, cell-based; conditions: NCI-H23, 48 h
[15] = system: A549; assay: Growth inhibition of human A549/ATCC cells assessed as cell growth at 100 uM incubated for 48 hrs by sulforhodamine B assay relative to control; assay type: functional; conditions: A549, 48 h, read-out: Activity
[16] = system: OVCAR-3; assay: Growth inhibition of human OVCAR3 cells assessed as cell growth at 1 uM incubated for 48 hrs by sulforhodamine B assay relative to control; assay type: functional; conditions: OVCAR-3, 48 h, read-out: Activity
[17] = system: SF-295; assay: Growth inhibition of human SF295 cells assessed as cell growth at 0.01 uM incubated for 48 hrs by sulforhodamine B assay relative to control; assay type: functional; conditions: SF-295, 48 h, read-out: Activity
[18] = system: RPMI-8226; assay: Growth inhibition of human RPMI8226 cells assessed as cell growth at 1 uM incubated for 48 hrs by sulforhodamine B assay relative to control; assay type: functional; conditions: RPMI-8226, 48 h, read-out: Activity
[19] = system: SK-MEL-2; assay: Growth inhibition of human SK-MEL-2 cells incubated for 48 hrs by sulforhodamine B assay; assay type: functional, cell-based; conditions: SK-MEL-2, 48 h
[20] = system: MDA-MB-231; assay: Growth inhibition of human MDA-MB-231 cells assessed as cell growth at 0.1 uM incubated for 48 hrs by sulforhodamine B assay relative to control; assay type: functional; conditions: MDA-MB-231, 48 h, read-out: Activity
[21] = system: UO-31; assay: Growth inhibition of human UO31 cells assessed as cell growth at 0.1 uM incubated for 48 hrs by sulforhodamine B assay relative to control; assay type: functional; conditions: UO-31, 48 h, read-out: Activity
[22] = system: Malme-3M; assay: Growth inhibition of human MALME-3M cells assessed as cell growth at 0.01 uM incubated for 48 hrs by sulforhodamine B assay relative to control; assay type: functional; conditions: read-out: Activity
[23] = system: SK-MEL-28; assay: Growth inhibition of human SK-MEL-28 cells incubated for 48 hrs by sulforhodamine B assay; assay type: functional, cell-based; conditions: SK-MEL-28, 48 h
[24] = system: HOP-62; assay: Growth inhibition of human HOP62 cells incubated for 48 hrs by sulforhodamine B assay; assay type: functional, cell-based; conditions: HOP-62, 48 h
[25] = system: PC-3; assay: Growth inhibition of human PC3 cells assessed as cell growth at 0.1 uM incubated for 48 hrs by sulforhodamine B assay relative to control; assay type: functional; conditions: PC-3, 48 h, read-out: Activity
[26] = system: MDA-MB-231; assay: Growth inhibition of human MDA-MB-231 cells assessed as cell growth at 0.01 uM incubated for 48 hrs by sulforhodamine B assay relative to control; assay type: functional; conditions: MDA-MB-231, 48 h, read-out: Activity
[27] = system: CCRF-CEM; assay: Growth inhibition of human CCRF-CEM cells assessed as cell growth at 100 uM incubated for 48 hrs by sulforhodamine B assay relative to control; assay type: functional; conditions: read-out: Activity
[28] = system: ACHN; assay: Growth inhibition of human ACHN cells assessed as cell growth at 1 uM incubated for 48 hrs by sulforhodamine B assay relative to control; assay type: functional; conditions: read-out: Activity
[29] = read-out: LC50 (the source's name)
[30] = read-out: pLC50 (the source's name) (converted)

Compound: COc1cc(Cl)cc(-c2nn(-c3cccc(NC(=O)c4cccc(C(F)(F)F)c4)c3)cc2-c2ccncc2)c1
- growth at 0.1 µM [1]: 89%
- growth at 0.01 µM [2]: 58%
- growth at 100 µM [3]: 52%
- growth at 100 µM [4]: 55%
- GI50 ([5]; read-out: GI50): > 100 µM
- CC50 [5, 29]: > 100 µM
- TGI ([5]; read-out: TGI): > 100 µM
- GI50 ([5]; read-out: pGI50 (converted)): > 100 µM
- CC50 [5, 30]: > 100 µM
- TGI ([5]; read-out: pTGI (converted)): > 100 µM
- growth at 0.1 µM [6]: 95%
- IC50 [7]: 2.71 µM
- GI50 ([7]; read-out: GI50): 2.71 µM
- CC50 [7, 29]: > 100 µM
- TGI ([7]; read-out: TGI): > 100 µM
- GI50 ([7]; read-out: pGI50 (converted)): 2.69 µM
- CC50 [7, 30]: > 100 µM
- TGI ([7]; read-out: pTGI (converted)): > 100 µM
- GI50 ([8]; read-out: GI50): 4.17 µM
- LC50 ([8]; read-out: LC50): > 100 µM
- TGI ([8]; read-out: TGI): > 100 µM
- GI50 ([8]; read-out: pGI50 (converted)): 4.17 µM
- LC50 ([8]; read-out: pLC50 (converted)): > 100 µM
- TGI ([8]; read-out: pTGI (converted)): > 100 µM
- growth at 0.1 µM [9]: 94%
- growth at 100 µM [10]: 52%
- growth at 100 µM [11]: 47%
- GI50 ([12]; read-out: GI50): 3.36 µM
- CC50 [12, 29]: > 100 µM
- TGI ([12]; read-out: TGI): > 100 µM
- GI50 ([12]; read-out: pGI50 (converted)): 3.31 µM
- CC50 [12, 30]: > 100 µM
- TGI ([12]; read-out: pTGI (converted)): > 100 µM
- growth at 0.01 µM [13]: 105%
- GI50 ([14]; read-out: GI50): 5.74 µM
- LC50 ([14]; read-out: LC50): > 100 µM
- TGI ([14]; read-out: TGI): > 100 µM
- GI50 ([14]; read-out: pGI50 (converted)): 6.76 µM
- LC50 ([14]; read-out: pLC50 (converted)): > 100 µM
- TGI ([14]; read-out: pTGI (converted)): > 100 µM
- growth at 100 µM [15]: 30%
- growth at 1 µM [16]: 102%
- growth at 0.01 µM [17]: 98%
- growth at 1 µM [18]: 79%
- GI50 ([19]; read-out: GI50): 0.78 µM
- CC50 [19, 29]: > 100 µM
- TGI ([19]; read-out: TGI): > 100 µM
- GI50 ([19]; read-out: pGI50 (converted)): 6.76 µM
- CC50 [19, 30]: > 100 µM
- TGI ([19]; read-out: pTGI (converted)): > 100 µM
- growth at 0.1 µM [20]: 90%
- growth at 0.1 µM [21]: 88%
- growth at 0.01 µM [22]: 58%
- GI50 ([23]; read-out: GI50): > 100 µM
- CC50 [23, 29]: > 100 µM
- TGI ([23]; read-out: TGI): > 100 µM
- GI50 ([23]; read-out: pGI50 (converted)): > 100 µM
- CC50 [23, 30]: > 100 µM
- TGI ([23]; read-out: pTGI (converted)): > 100 µM
- GI50 ([24]; read-out: GI50): > 100 µM
- CC50 [24, 29]: > 100 µM
- TGI ([24]; read-out: TGI): > 100 µM
- GI50 ([24]; read-out: pGI50 (converted)): > 100 µM
- CC50 [24, 30]: > 100 µM
- TGI ([24]; read-out: pTGI (converted)): > 100 µM
- growth at 0.1 µM [25]: 52%
- growth at 0.01 µM [26]: 102%
- growth at 100 µM [27]: 32%
- growth at 1 µM [28]: 54%
